Experimental data: patent US20150216955A1, “IMMUNOMODULATORY AGENT AND USES THEREFOR” (The University of Queensland, priority 2012, published 2015)
Where a SMILES comes first, the peptide text is derived from it. Where no end group is shown, it is not given here. [ ]: non-standard residue; d: D form. Cit = NC(=O)NCCC[C@H](N)C(=O)O

Columns and labels:
[1] = system: antigen-presenting cells (APC); assay: Pre-incubation of APC with NF-kB, mTOR or Syk inhibitors; T cell cytokine production in response to citrullinated aggrecan peptide; type: cell-based, human; conditions: APC pre-incubated 1 h with inhibitor, then LPS; 5 days with CD4+ T cells and 3 or 30 μg/mL Aggrecan peptide 84-103 cit 93
Method: Peripheral blood mononuclear cells (PBMC) were extracted from an RA patient with disease duration 18 years, positive anti-CCP and HLA-DRB1*0401 shared epitope. Autologous CD4+ T cells were isolated using immunomagnetic beads. The non-T cell fraction consists of antigen-presenting cells (APC), including dendritic cells, monocytes and B cells; it was treated with Mitomycin C to prevent proliferation. The APC were pre-incubated for 1 h without or with 3 uM BAY7011-82, 20 μg/mL Curcumin (both inhibit NF-kB), 10 ng/mL Rapamycin (inhibits mTOR) or […] Piceatannol (inhibits syk), then incubated with 100 ng/mL LPS for 1 h. The APC were washed 3 times then incubated for 5 days with CD4+ T cells in the presence of 0 μg/mL, 3 μg/mL or 30 μg/mL Aggrecan peptide 84-103 cit 93. Cytokines were analysed in culture supernatants by cytokine bead array.

PBMC or SFMC = type: cell-based, human
PBMC = assay: Cytokine secretion in day 5 supernatants by Cytometric Bead Array (CBA) after peptide stimulation; type: cell-based, human; conditions: for number of RA patients with positive IL-6 response to this epitope only: of 17 RA patients, threshold mean + 2 SD above native peptide response; for cytokine responses to the epitope: current studies, fibrinogen: long-standing RA patients
CD4+ T cells = assay: Flow cytometry and intracellular cytokine staining after peptide stimulation; type: cell-based, human
Method: FIG. 6 is a graphical representation showing cytokine secretion by CD4^+ T cell subsets. PBMC from HLA-DR SE^+ RA patients and healthy controls were incubated with 0 or 30 μg/ml citrullinated fibrinogen or citrullinated aggrecan, stained with mAb directed against CD4, CD28, IFN-γ and IL-6 (A), or CD4, CD45RO, IL-6 and IFN-γ (E) then analyzed by flow cytometry. B: The gating strategy is outlined. C: Fluorescence minus one (FMO) plot showing background staining for intracellular cytokine staining, gated on CD4^+ T cells. D: IL-6 staining of gated CD4^− non-T cells. The proportions in (E) of IL-6^+CD4^+CD45RO^+ T cells were 2.2%, 5.3% and 7.1%, and of IL-6^+CD4^+CD45RO^− T cells were 0.8%, 2.1% and 4% in response to incubation with no peptide, citrullinated fibrinogen and citrullinated aggrecan respectively. Two individual RA patients and 1 healthy control are shown. Data are representative of 2 healthy donors and 5 RA patients.
IL-6 is an important cytokine in RA, which could be produced upon stimulation of PBMC either by T cells or antigen presenting cells. To determine the origin of the cytokines secreted into supernatants of PBMC stimulated by citrullinated peptides, RA PBMC were incubated with citrullinated or native peptides for 5 days, with addition of Brefeldin-A for the last 18 hours, prior to intracellular cytokine staining along with analysis of cell surface markers. CD3^+CD4^+ T cells produced more intra-cellular IFN-γ and IL-6 when incubated with citrullinated aggrecan or fibrinogen relative to incubation in medium alone (FIG. 6A, B). […] In healthy controls, CD28^− cells comprised only a small proportion of the CD4^+ T cells, and cytokine-secreting cells were exclusively CD4^+CD28^+. CD28^− cells were more abundant among CD4^+ PB T cells in some, but not all, RA patients. Where CD4^+CD28^− T cells were present, IL-6 and IFN-γ were secreted by both CD28^− and CD28^+CD4^+ T cells in response to citrullinated peptides. […] IFN-γ^+CD4^+ and IL-6^+CD4^+ T cells included both CD45RO^+ and CD45RO^− cells (FIG. 6E).
PBMC from SE^+ RA patients or healthy controls were incubated with or without peptides at concentrations of 3 and 30 μg/mL for 5 days, with Brefeldin A (Sigma Aldrich) added for the final 18 hours. Cells were stained for CD3-FITC, CD4-APC/Cy7, CD28-FITC, CXCR5-PerCP/Cy5.5 and CD45RO-PerCP/Cy5.5 (Biolegend), followed by permeabilization and staining for intracellular IL-6-APC and IFN-γ-APC (Biolegend). Data were collected on the Gallios flow cytometer and analysed using Kaluza software (Beckman Coulter).

[2] = Solubility of peptide in aqueous medium; type: physicochemical
[3] = RA PBMC, 5 days, Brefeldin-A last 18 hours

Question: For `Cc1ccc(S(=O)(=O)/C=C/C#N)cc1` [Bay11-7082, E3((4-methylphenyl)-sulfonyl)-2-propenenitrile], which “capacity of APC presenting cit-peptide to induce T cell IL-6 production” value [1] is on record?
Answer: partially suppressed

Question: Which “Proliferative responses to tetanus toxoid, RA compared with healthy control PBMC” value (PBMC or SFMC) does the source give for tetanus toxoid here?
Answer: significantly lower

Question: With “QYM[Cit]ADQAAGGLR [citrullinated collagen type II]” as the compound, how does the “number of RA patients with positive IL-6 response to this epitope only” value (PBMC) read?
Answer: 0

Question: Which results are given for “QDFIN[Cit]INKLKNS [citrullinated fibrinogen]”?
Answer: healthy controls whose PBMC dose-dependently secreted IL-6 (PBMC; 6 SE+ healthy controls): 3/6; cytokine responses to the epitope (PBMC): robust cytokine production; number of RA patients with positive IL-6 response to this epitope only (PBMC): 0; proportion of IL-6+CD4+CD45RO- T cells (CD4+ T cells; 30 μg/ml peptide, no peptide 0.8%): 2.1%; proportion of IL-6+CD4+CD45RO+ T cells (CD4+ T cells; 30 μg/ml peptide, no peptide 2.2%): 5.3%; intra-cellular IFN-γ in CD3+CD4+ T cells relative to medium alone (CD4+ T cells; [3]): more; intra-cellular IL-6 in CD3+CD4+ T cells relative to medium alone (CD4+ T cells; [3]): more

Question: With `CC(C)C[C@H](NC(=O)[C@H](CC(C)C)NC(=O)[C@@H](NC(=O)[C@@H](N)C(C)C)C(C)C)C(=O)N[C@H](C(=O)N[C@@H](C)C(=O)N[C@H](C(=O)N[C@@H](CCC(=O)O)C(=O)NCC(=O)N[C@@H](CCCNC(N)=O)C(=O)N[C@H](C(=O)N[C@@H](CCCNC(=N)N)C(=O)N[C@H](C(=O)N[C@@H](CC(N)=O)C(=O)N[C@@H](CO)C(=O)N[C@@H](C)C(=O)N[C@@H](Cc1ccc(O)cc1)C(=O)N[C@@H](CCC(N)=O)C(=O)N[C@@H](CC(=O)O)C(=O)N[C@@H](CCCCN)C(=O)O)C(C)C)C(C)C)[C@@H](C)O)C(C)C` [citrullinated aggrecan, VVLLVATEGCitVRVNSAYQDK] (HELM PEPTIDE1{V.V.L.L.V.A.T.E.G.[Cit].V.R.V.N.S.A.Y.Q.D.K}$$$$V2.0; N-terminus and C-terminus assumed) as the compound, how does the “solubility in aqueous medium” value [2] read?
Answer: relatively insoluble in aqueous medium

Question: With “SAVRA[Cit]SSVPGVR [citrullinated vimentin 66-78]” as the compound, how does the “cytokine responses to the epitope” value (PBMC) read?
Answer: much weaker cytokine responses
